biological target: T1, Recombinant Human 5′-Nucleotidase (CD73) (Homo sapiens, UniProt P21589); assay: CD73 Enzyme Assay (PiColorLock inorganic phosphate detection, AMP substrate); assay type: biochemical; conditions: human CD73 0.5 nM, AMP 30 μM, 20 min at 37° C., absorbance 635 nm; read-out: Potency (IC50)
T1 construct: CHO derived CD73 (Trp27-Lys547), with a C-terminal 6-His tag; 6-His (C); purchased R&D 5795-EN; host or cells: CHO
T1 sequence (P21589 27-547): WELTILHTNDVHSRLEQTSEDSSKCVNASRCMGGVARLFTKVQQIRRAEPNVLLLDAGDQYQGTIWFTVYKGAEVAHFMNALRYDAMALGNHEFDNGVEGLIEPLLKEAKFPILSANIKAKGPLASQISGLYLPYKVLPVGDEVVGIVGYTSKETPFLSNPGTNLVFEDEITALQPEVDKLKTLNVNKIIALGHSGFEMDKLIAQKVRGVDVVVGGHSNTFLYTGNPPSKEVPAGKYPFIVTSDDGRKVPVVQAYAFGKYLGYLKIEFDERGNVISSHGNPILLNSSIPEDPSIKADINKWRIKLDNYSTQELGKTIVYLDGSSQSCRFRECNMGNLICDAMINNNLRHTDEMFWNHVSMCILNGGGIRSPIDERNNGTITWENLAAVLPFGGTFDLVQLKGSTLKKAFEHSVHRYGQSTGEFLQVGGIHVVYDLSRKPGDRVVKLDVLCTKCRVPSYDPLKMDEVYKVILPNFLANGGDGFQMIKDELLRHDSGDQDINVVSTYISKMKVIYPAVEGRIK
Source text: Soluble recombinant CD73 catalyzes the conversion of adenosine monophosphate (AMP) to adenosine and inorganic phosphate. The phosphate detection reagent, PiColorLock™ (Innova Bioscience, Cat #303-0125) is based on the change in absorbance of the dye malachite green in the presence of inorganic phosphate (Pi) and this property can be exploited to measure any enzyme that generates Pi. Recombinant Human 5′-Nucleotidase (CD73) (R&D #5795-EN, CHO derived CD73 (Trp27-Lys547), with a C-terminal 6-His tag) was used in the enzymatic assay. This assay, run in a 384-well plate format (Corning® NBS™ 384 well plates, Cat #3640), is a generic method for measuring inorganic phosphate. The basic assay procedure involves two steps: 1) Enzyme reaction: The CD73 enzyme (R&D #5795-EN) is incubated in the presence or absence of compounds. AMP (sigma, cat #01930) is added to start the […] reaction. 2) Detection step: Gold mix is added to the assay system, then stabilizers are added. After incubation the absorbance of the solution is read at OD 635 nm. The recorded OD signal is proportional to the enzyme activity.
Briefly, 25 μl human CD73 (0.5 nM final concentration) in the enzymatic buffer solutions (20 mM Tris, 25 mM NaCl, 1 mM MgCl2, pH 7.5, 0.005% Tween-20) were mixed with various concentrations of the test compound (dissolved in 100% DMSO). These solutions were incubated for 15 min at 25° C., and subsequently 25 μl AMP (30 μM final concentration) was added to start the reaction. The final reaction mixture of enzyme-substrate-compound was incubated for 20 min at 37° C. Meanwhile ‘Gold mix’ was prepared shortly before use by adding 1/100 vol. of accelerator to the PiColorLock™ Gold reagent. 12 μL/well of the ‘Gold mix’ was added to assay plate containing 50 μL enzyme reaction buffer and incubated at 25° C. for 5 min. 5 μL/well stabilizer was added to the assay plate and incubated at 25° C. for 30 min. The absorbance of the well solutions was measured at 635 nm on a Spark 10M instrument (TECAN).
The percent (%) inhibition at each concentration of a compound was calculated relative to the […] value in the Max and Min control wells contained within each assay plate. The Max control wells contained enzyme and substrate as 0% inhibition, and the Min control wells only contained substrate without enzyme as 100% inhibition. The concentrations and percent inhibition values for a test compound are plotted and the concentration of the compound required to achieve 50% inhibition (IC50) was determined with a four-parameter logistic dose response equation.

| SMILES | IC50 |
| --- | --- |
| O=P(O)(O)CP(=O)(O)OC[C@H]1O[C@@H](c2cnc3c(NC4CCCC4)cc(Cl)nn23)[C@H](O)[C@@H]1O [Example S1, (((((2R,3S,4R,5S)-5-(6-chloro-8-(cyclopentylamino)imidazo[1,2-b]pyridazin-3-yl)-3,4-dihydroxytetrahydrofuran-2-yl)methoxy)(hydroxy)phosphoryl)methyl)phosphonic acid] | 1 to 9.9 nM |
| C[C@H](Nc1cc(Cl)nn2c([C@@H]3O[C@H](COP(=O)(O)CP(=O)(O)O)[C@@H](O)[C@H]3O)cnc12)c1ccccc1F [Example S2, [({[(2R,3S,4R,5S)-5-(6-chloro-8-{[(1S)-1-(2-fluorophenyl)ethyl]amino}imidazo[1,2-b]pyridazin-3-yl)-3,4-dihydroxyoxolan-2-yl]methoxy}(hydroxy)phosphoryl)methyl]phosphonic acid] | 1 to 9.9 nM |
| O=P(O)(O)CP(=O)(O)OC[C@H]1O[C@@H](c2cnc3c(N4CCC[C@H]4c4ccccc4)cc(Cl)nn23)[C@H](O)[C@@H]1O [Example S3, (((((2R,3S,4R,5S)-5-(6-chloro-8-((S)-2-phenylpyrrolidin-1-yl)imidazo[1,2-b]pyridazin-3-yl)-3,4-dihydroxytetrahydrofuran-2-yl)methoxy)(hydroxy)phosphoryl)methyl)phosphonic acid] | 1 to 9.9 nM |
| O=P(O)(O)CP(=O)(O)OC[C@H]1O[C@@H](c2cnc3c(N4CC5CCCC5C4)cc(Cl)nn23)[C@H](O)[C@@H]1O (stereo partly drawn) [Example S4, (((((2R,3S,4R,5S)-5-(6-chloro-8-(hexahydrocyclopenta[c]pyrrol-2 (1H)-yl)imidazo[1,2-b]pyridazin-3-yl)-3,4-dihydroxytetrahydrofuran-2-yl)methoxy)(hydroxy)phosphoryl)methyl) phosphonic acid] | < 1 nM |
| O=P(O)(O)CP(=O)(O)OC[C@H]1O[C@@H](c2cnc3c(NC4CCCCC4)cc(Cl)nn23)[C@H](O)[C@@H]1O [Example S5, (((((2R,3S,4R,5S)-5-(6-chloro-8-(cyclohexylamino)imidazo[1,2-b]pyridazin-3-yl)-3,4-dihydroxytetrahydrofuran-2-yl)methoxy)(hydroxy)phosphoryl)methyl)phosphonic acid] | 1 to 9.9 nM |
| O=P(O)(O)CP(=O)(O)OC[C@H]1O[C@@H](c2cnc3c(NC4CC5CCC4C5)cc(Cl)nn23)[C@H](O)[C@@H]1O (stereo partly drawn) [Example S6, (((((2R,3S,4R,5S)-5-(8-(bicyclo[2.2.1]heptan-2-ylamino)-6-chloroimidazo[1,2-b]pyridazin-3-yl)-3,4-dihydroxytetrahydrofuran-2-yl)methoxy)(hydroxy)phosphoryl)methyl)phosphonic acid] | 1 to 9.9 nM |
| O=P(O)(O)CP(=O)(O)OC[C@H]1O[C@@H](c2ncc3c(NC4CCCC4)cc(Cl)nn23)[C@H](O)[C@@H]1O [Example S7, (((((2R,3S,4R,5S)-5-(2-chloro-4-(cyclopentylamino)imidazo[1,5-b]pyridazin-7-yl)-3,4-dihydroxytetrahydrofuran-2-yl)methoxy)(hydroxy)phosphoryl)methyl)phosphonic acid] | 1 to 9.9 nM |
| O=P(O)(O)CP(=O)(O)OC[C@H]1O[C@@H](c2ncc3c(N4CCC[C@H]4c4ccccc4)cc(Cl)nn23)[C@H](O)[C@@H]1O [Example S8, (((((2R,3S,4R,5S)-5-(2-chloro-4-((S)-2-phenylpyrrolidin-1-yl)imidazo[1,5-b]pyridazin-7-yl)-3,4-dihydroxytetrahydrofuran-2-yl)methoxy)(hydroxy)phosphoryl)methyl)phosphonic acid] | 1 to 9.9 nM |
| O=P(O)(O)CP(=O)(O)OC[C@H]1O[C@@H](c2ncc3c(N4CC5CCCC5C4)cc(Cl)nn23)[C@H](O)[C@@H]1O (stereo partly drawn) [Example S9, [({[(2R,3S,4R,5S)-5-(2-chloro-4-{hexahydro-1H-cyclopenta[c]pyrrol-2-yl}imidazo[1,5-b]pyridazin-7-yl)-3,4-dihydroxyoxolan-2-yl]methoxy}(hydroxy)phosphoryl)methyl]phosphonic acid] | < 1 nM |
| O=P(O)(O)CP(=O)(O)OC[C@H]1O[C@@H](c2csc3c(NC4CCCC4)nc(Cl)nc23)[C@H](O)[C@@H]1O [Example S10, (((((2R,3S,4R,5S)-5-(2-chloro-4-(cyclopentylamino)thieno[3,2-d]pyrimidin-7-yl)-3,4-dihydroxytetrahydrofuran-2-yl)methoxy)(hydroxy)phosphoryl)methyl)phosphonic acid] | < 1 nM |
| O=P(O)(O)CP(=O)(O)OC[C@H]1O[C@H](c2csc3c(NC4CCCC4)nc(Cl)nc23)[C@H](O)[C@@H]1O [Example S11] | 10 to 99 nM |
| O=P(O)(O)CP(=O)(O)OC[C@H]1OC(c2cnc3c(NC4CCOC4)cc(Cl)nn23)[C@H](O)[C@@H]1O (stereo partly drawn) [Example S12, (((((2R,3S,4R)-5-(6-chloro-8-((tetrahydrofuran-3-yl)amino)imidazo[1,2-b]pyridazin-3-yl)-3,4-dihydroxytetrahydrofuran-2-yl)methoxy)(hydroxy)phosphoryl)methyl)phosphonic acid] | 1 to 9.9 nM |
| O=P(O)(O)CP(=O)(O)OC[C@H]1OC(c2cnc3c(NC4CCC(F)(F)C4)cc(Cl)nn23)[C@H](O)[C@@H]1O (stereo partly drawn) [Example S13, (((((2R,3S,4R)-5-(6-chloro-8-((3,3-difluorocyclopentyl)amino)imidazo[1,2-b]pyridazin-3-yl)-3,4-dihydroxytetrahydrofuran-2-yl)methoxy)(hydroxy)phosphoryl)methyl)phosphonic acid] | 1 to 9.9 nM |
| O=P(O)(O)CP(=O)(O)OC[C@H]1OC(c2cnc3c(NCc4ccccc4)cc(Cl)nn23)[C@H](O)[C@@H]1O (stereo partly drawn) [Example S14, (((((2R,3S,4R)-5-(8-(benzylamino)-6-chloroimidazo[1,2-b]pyridazin-3-yl)-3,4-dihydroxytetrahydrofuran-2-yl)methoxy)(hydroxy)phosphoryl)methyl)phosphonic acid] | 1 to 9.9 nM |
| O=P(O)(O)CP(=O)(O)OC[C@H]1OC(c2cnc3c(NCc4ccccc4Cl)cc(Cl)nn23)[C@H](O)[C@@H]1O (stereo partly drawn) [Example S15, (((((2R,3S,4R)-5-(6-chloro-8-((2-chlorobenzyl)amino)imidazo[1,2-b]pyridazin-3-yl)-3,4-dihydroxytetrahydrofuran-2-yl)methoxy)(hydroxy)phosphoryl)methyl)phosphonic acid] | 1 to 9.9 nM |
| C[C@H](Nc1cc(Cl)nn2c(C3O[C@H](COP(=O)(O)CP(=O)(O)O)[C@@H](O)[C@H]3O)cnc12)c1cccc(F)c1 (stereo partly drawn) [Example S16, (((((2R,3S,4R)-5-(6-chloro-8-(((S)-1-(3-fluorophenyl)ethyl)amino)imidazo[1,2-b]pyridazin-3-yl)-3,4-dihydroxytetrahydrofuran-2-yl)methoxy)(hydroxy)phosphoryl)methyl)phosphonic acid] | 1 to 9.9 nM |
| C[C@H](Nc1cc(Cl)nn2c(C3O[C@H](COP(=O)(O)CP(=O)(O)O)[C@@H](O)[C@H]3O)cnc12)c1ccc(F)cc1 (stereo partly drawn) [Example S17, (((((2R,3S,4R)-5-(6-chloro-8-(((S)-1-(4-fluorophenyl)ethyl)amino)imidazo[1,2-b]pyridazin-3-yl)-3,4-dihydroxytetrahydrofuran-2-yl)methoxy)(hydroxy)phosphoryl)methyl)phosphonic acid] | < 1 nM |
| C[C@H](Nc1cc(Cl)nn2c(C3O[C@H](COP(=O)(O)CP(=O)(O)O)[C@@H](O)[C@H]3O)cnc12)c1ccccc1 (stereo partly drawn) [Example S18, (((((2R,3S,4R)-5-(6-chloro-8-(((S)-1-phenylethyl)amino)imidazo[1,2-b]pyridazin-3-yl)-3,4-dihydroxytetrahydrofuran-2-yl)methoxy)(hydroxy)phosphoryl)methyl)phosphonic acid] | 1 to 9.9 nM |
